The source of these data is patent publication US20180193409A1, “PEPTIDYL TPOR ANTAGONISTS AND USES THEREOF” (POLYMERS CRC LIMITED, priority 2015, published 2018).

Bridge positions count the residues as written; N and C are the ends. Peptide text beside a SMILES is read from it. I, II: the chains in the order shown.

Assay [1] has as its target T1, receptor for human TPO (c-Mpl) (Homo sapiens, UniProt P40238).
T1 construct: expressed in transfected cells; host or cells: FD-Mpl (murine, derived from FDCP-1)
T1 sequence (P40238 26-635): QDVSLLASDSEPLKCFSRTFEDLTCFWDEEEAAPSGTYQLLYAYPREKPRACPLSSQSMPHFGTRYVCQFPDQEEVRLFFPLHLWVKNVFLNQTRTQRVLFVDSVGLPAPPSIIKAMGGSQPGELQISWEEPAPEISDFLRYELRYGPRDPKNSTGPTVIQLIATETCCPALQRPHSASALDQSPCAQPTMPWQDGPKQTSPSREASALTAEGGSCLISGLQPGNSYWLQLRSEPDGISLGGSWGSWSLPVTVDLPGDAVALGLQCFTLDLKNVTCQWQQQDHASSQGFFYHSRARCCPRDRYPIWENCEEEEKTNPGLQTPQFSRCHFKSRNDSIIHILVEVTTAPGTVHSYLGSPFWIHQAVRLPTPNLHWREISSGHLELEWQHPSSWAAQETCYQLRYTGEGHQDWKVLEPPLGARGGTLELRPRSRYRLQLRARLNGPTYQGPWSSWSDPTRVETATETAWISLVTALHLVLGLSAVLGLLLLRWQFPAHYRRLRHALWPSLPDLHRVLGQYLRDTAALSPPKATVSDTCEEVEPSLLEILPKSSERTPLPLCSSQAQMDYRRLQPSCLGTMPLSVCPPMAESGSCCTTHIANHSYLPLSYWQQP
In words: Antagonist assay: proliferation of FD-Mpl cells in media supplemented with rhTPO (ATP-luminescence). Format: cell-based. As to conditions: murine FD-Mpl cells, 6 or 10 ng/mL rhTPO (LCP also 30 ng/mL), 24 hours; read-out: concentration at which the decrease in normalised cell proliferation occurred (estimated EC50, antagonist assay). The method, then: Bioactivity testing was carried out as follows. All compounds were tested on a murine TPO-dependent cell line FD-Mpl. FD-Mpl cells are derived from the haemopoietic growth factor dependent cell line FDCP-1 and express the receptor for human TPO (c-Mpl)—(as per Winkler, D., Riches, A., Condie, G., Tarasova, A., Andrade, J., White, J., Cablewski, T., Werkmeister, J., Haylock, D. and Meagher, L., ACS Chemical Biology 2010, DOI: 10.1021/cb100100u). […] FD-Mpl cells were counted and resuspended in a mix of cell culture medium with added peptide of interest and incubated at 4° C. for 2 h (for the agonist assay this brief incubation at 4° C. for 2 h was omitted). […]
Cells were then incubated at 37° C. for 24 hours (or 48 hours in the case of the agonist assay) and cell proliferation was assessed as follows. Cells were plated in quadruplicate onto white luminescence detection plates and cell proliferation and viability were assessed by an ATP-luminescence detection assay (CellTiter Glo Luminescent Cell Viability Assay Kit, Promega). Cells were also plated in triplicate and cell morphology was assessed using phase contrast microscopy. […]

Assay [2] has as its target T1, receptor for human TPO (c-Mpl). The experiment in a line: Agonist assay: proliferation of FD-Mpl cells in the absence of rhTPO (ATP-luminescence). Conditions: no rhTPO. Format: cell-based. The method, then: Bioactivity testing was carried out as follows. All compounds were tested on a murine TPO-dependent cell line FD-Mpl. FD-Mpl cells are derived from the haemopoietic growth factor dependent cell line FDCP-1 and express the receptor for human TPO (c-Mpl)—(as per Winkler, D., Riches, A., Condie, G., Tarasova, A., Andrade, J., White, J., Cablewski, T., Werkmeister, J., Haylock, D. and Meagher, L., ACS Chemical Biology 2010, DOI: 10.1021/cb100100u). These cells are typically cultured in media supplemented with 10% foetal bovine serum and the cytokines interleukin-3, GM-CSF or TPO (as per Naparstek, E., Pierce, J., Metcalf, D., Shadduck, R., Ihle, J., Leder, A., Sakakeeny, M. A., Wagner, K., Falco, J., Fitzgerald, T. J. and Greenberger, J. S., Blood 1986, 67, 1395-1403). In the absence of either of these factors, FDCP-1 cells rapidly undergo apoptosis (usually within 24 hours). FD-Mpl cells were maintained in DMEM medium with 10% foetal calf serum (FCS) and supplemented with 30 ng/mL of recombinant human TPO (rhTPO, Apollo Cytokine Research). For the antagonist assay, FD-Mpl cells were harvested by centrifugation and the resulting cell pellet was thoroughly washed, twice, with 10 mL PBS to remove residual cytokine. The cells were then resuspended in 5 mL of cell culture medium without rhTPO and incubated at 37° C. for 1 h (or 2 h in the case of the agonist assay; Note: short term withdrawal of rhTPO enhances up-regulation of the TPO receptor, c-Mpl). FD-Mpl cells were counted and resuspended in a mix of cell culture medium with added peptide of interest and incubated at 4° C. for 2 h (for the agonist assay this brief incubation at 4° C. for 2 h was omitted). Following this incubation, cells were supplemented with low doses of TPO (either 6 or 10 ng/mL of rhTPO) and plated at 5000 cells/well/100 μL medium in a 96-well tissue culture plate. […]
Cells were then incubated at 37° C. for 24 hours (or 48 hours in the case of the agonist assay) and cell proliferation was assessed as follows. Cells were plated in quadruplicate onto white luminescence detection plates and cell proliferation and viability were assessed by an ATP-luminescence detection assay (CellTiter Glo Luminescent Cell Viability Assay Kit, Promega). Cells were also plated in triplicate and cell morphology was assessed using phase contrast microscopy.
For the antagonist assay, the cell numbers determined via the luminescence assay were normalised by the cell numbers obtained for FD-Mpl cells cultured in either 6 or 10 ng/mL of rhTPO without added peptide and plotted as a function of the peptide concentration (see FIGS. 1a and b). […] For the agonist assay used with the LCP-PD peptide, the cell numbers were normalised by the cell numbers obtained with media supplemented with 30 ng/mL rhTPO and expressed as a percentage. […]

`CC(=O)N[C@@H](C)C(=O)N[C@H]1CSSC[C@@H](C(=O)N[C@@H](C)C(=O)O)NC(=O)[C@H](C)NC(=O)[C@H](C)NC(=O)[C@H](C)NC(=O)[C@H](CC(C)C)NC(=O)[C@H](Cc2c[nH]c3ccccc23)NC(=O)[C@H](CCC(N)=O)NC(=O)[C@H](CCCNC(=N)N)NC(=O)[C@H](CC(C)C)NC(=O)[C@H](C)NC(=O)[C@H](C)NC(=O)[C@H](C)NC1=O` [Example 2, AcACAAALRQWLAAACA] (Ac-ACAAALRQWLAAACA-OH; disulfide 2-14): in assay [1], the EC50 is 20 to 30 µM.

Regarding `CC[C@H](C)[C@@H]1NC(=O)[C@H](C)NC(=O)[C@@H](NC(=O)[C@H](C)NC(C)=O)CSSC[C@H](NC(=O)[C@H](C)NC(C)=O)C(=O)N[C@@H](C)C(=O)N[C@@H]([C@@H](C)CC)C(=O)N[C@@H](CCC(=O)O)C(=O)NCC(=O)N2CCC[C@H]2C(=O)N[C@@H]([C@@H](C)O)C(=O)N[C@@H](CC(C)C)C(=O)N[C@@H](CCCNC(=N)N)C(=O)N[C@@H](CCC(N)=O)C(=O)N[C@@H](Cc2c[nH]c3ccccc23)C(=O)N[C@@H](CC(C)C)C(=O)N[C@@H](C)C(=O)N[C@@H](C)C(=O)N[C@@H](CCCNC(=N)N)C(=O)N[C@@H](C)C(=O)N[C@@H](C)C(=O)N[C@H](C(=O)N[C@@H](C)C(=O)O)CSSC[C@@H](C(=O)N[C@@H](C)C(=O)O)NC(=O)[C@H](C)NC(=O)[C@H](C)NC(=O)[C@H](CCCNC(=N)N)NC(=O)[C@H](C)NC(=O)[C@H](C)NC(=O)[C@H](CC(C)C)NC(=O)[C@H](Cc2c[nH]c3ccccc23)NC(=O)[C@H](CCC(N)=O)NC(=O)[C@H](CCCNC(=N)N)NC(=O)[C@H](CC(C)C)NC(=O)[C@H]([C@@H](C)O)NC(=O)[C@@H]2CCCN2C(=O)CNC(=O)[C@H](CCC(=O)O)NC1=O` [LCP-PD] (I: Ac-ACAIEGPTLRQWLAARAACA-OH / II: Ac-ACAIEGPTLRQWLAARAACA-OH; disulfide I:2-II:2, I:19-II:19; C-terminus assumed), the “agonist activity at the c-Mpl receptor (in words)” value in assay [2] (FD-Mpl cells) is “potent agonist”.

For the compound `CC[C@H](C)[C@@H]1NC(=O)[C@H](C)NC(=O)[C@@H](NC(=O)[C@H](C)NC(C)=O)CSSC[C@@H](C(=O)N[C@@H](C)C(=O)O)NC(=O)[C@H](C)NC(=O)[C@H](C)NC(=O)[C@H](CCCNC(=N)N)NC(=O)[C@H](C)NC(=O)[C@H](C)NC(=O)[C@H](CC(C)C)NC(=O)[C@H](Cc2c[nH]c3ccccc23)NC(=O)[C@H](CCC(N)=O)NC(=O)[C@H](CCCNC(=N)N)NC(=O)[C@H](CC(C)C)NC(=O)[C@H]([C@@H](C)O)NC(=O)[C@@H]2CCCN2C(=O)CNC(=O)[C@H](CCC(=O)O)NC1=O` [LCP] (Ac-ACAIEGPTLRQWLAARAACA-OH; disulfide 2-19; C-terminus assumed), the EC50 was approximately 3 µM in assay [1] and approximately 0.06 µM in assay [2] (murine FD-Mpl cells, 48 hours, read-out: concentration at which increased cell proliferation was observed (agonist assay)). Also, the “efficacy with respect to cell proliferation (agonist assay)” value in assay [2] (FD-Mpl cells, normalised by cell numbers with 30 ng/mL rhTPO) is given as 40%.

Regarding `CC(=O)N[C@@H](C)C(=O)N[C@H]1CSSC[C@H](NC(=O)[C@H](C)NC(C)=O)C(=O)N[C@@H](C)C(=O)N[C@@H](C)C(=O)N[C@@H](C)C(=O)N[C@@H](CC(C)C)C(=O)N[C@@H](CCCNC(=N)N)C(=O)N[C@@H](CCC(N)=O)C(=O)N[C@@H](Cc2c[nH]c3ccccc23)C(=O)N[C@@H](CC(C)C)C(=O)N[C@@H](C)C(=O)N[C@@H](C)C(=O)N[C@@H](C)C(=O)N[C@H](C(=O)N[C@@H](C)C(=O)O)CSSC[C@@H](C(=O)N[C@@H](C)C(=O)O)NC(=O)[C@H](C)NC(=O)[C@H](C)NC(=O)[C@H](C)NC(=O)[C@H](CC(C)C)NC(=O)[C@H](Cc2c[nH]c3ccccc23)NC(=O)[C@H](CCC(N)=O)NC(=O)[C@H](CCCNC(=N)N)NC(=O)[C@H](CC(C)C)NC(=O)[C@H](C)NC(=O)[C@H](C)NC(=O)[C@H](C)NC1=O` [MCP-PD] (I: Ac-ACAAALRQWLAAACA-OH / II: Ac-ACAAALRQWLAAACA-OH; disulfide I:2-II:2, I:14-II:14; C-terminus assumed), in assay [2] (FD-Mpl cells), the “agonist activity at the c-Mpl receptor (in words)” value is “reasonably potent agonist”.
